According to patent publication US20230149732A1, “COMBINED NITRITE AND LIGHT TREATMENT TO PREVENT DEVICE THROMBOSIS” (Wake Forest University Health Sciences, priority 2021, published 2023):
Read-outs that look alike come from different tables or passages of the source.

Experiments:
platelet activation = assay: Inhibition of platelet activation, with or without RBCs (flow cytometry); format: cell-based; settings: for effect on nitrite-mediated inhibition of platelet activation by RBCs: NO scavenger or RBC surface thiol blocker added
Description: This disclosure also teaches that far-red and near infrared light dramatically enhance nitrite bioactivation by RBCs. Far-red light (about 600-750 nm) and near infrared light (about 700-1400 nm) have been used clinically for improved wound healing, tissue generation, reduction of inflammation, and increasing cerebral blood flow to improve cognition. The mechanism for these actions has been attributed generally to increased blood flow, tissue oxygenation, and angiogenesis secondary to improved mitochondrial function attributed to cytochrome c oxidase redox state and function. However, it was not clear how improvement in cytochrome c oxidation state could account for increased blood flow and other effects of infrared/far-red light. […] The data shown in FIG. 2 strongly supports this premise (note scales). Previous work using inhibition of platelet activation as a measure of nitrite bioactivation has shown that (i) RBCs are necessary for nitrite-mediated inhibition of platelet activation (while other NO donors' ability to inhibit platelet activation is blunted by the presence of RBCs), (ii) this action is abrogated by an NO scavenger, (iii) this action is achieved with plasma levels of nitrite easily attained through dietary nitrate interventions, and (iv) this action involves RBC surface thiols. […] This is attributed to accumulating steady state NO species on the surface of the RBCs. The effects of far-red light without nitrite treatment are small and variable, perhaps reflecting small amounts of nitrite present at steady state and varying between individuals due to diet and other factors.
Nitrite addition to activated platelets in the absence of RBCs has no effect (FIG. 2A—note scale is expanded). […] This interaction is depicted in FIG. 1. It has been shown that Hb is the primary erythrocytic nitrite reductase and that nitrite bioactivation by RBCs involves NO. […] Nitrite is the best suited NO donor for treating thrombosis as it requires the presence of RBCs to work while others efficacy is blunted by RBCs (via the reaction described in Equation 2).
where the ferric hemin reversibly binds NO, GSH reduces the hemin and forms a thiyl radical which then reacts with NO, similar to a mechanism proposed for DNIC formation. The formation of the thiyl radical is supported by lower GSNO yield when the thiyl radical trap 5,5-dimethyl-1-pyrroline N-oxide (DMPO) is added (FIG. 4D). Thus, this system of hemin, NO and thiol (all present in the RBC after nitrite addition) yield both species of interest: nitrosothiols and heme-nitrosyls (which can bind to a surface thiol). Studies using RBCs. […] This inhibition was abrogated by pre-treatment with the thiol binding agent N-ethyl maleimide (NEM) (FIG. 5).

oxygenated Hb (OxyHb) = oxygenated Hb (OxyHb) (Homo sapiens, UniProt P68871+P69905); settings: NO + HbO2; cited from earlier work
platelet adhesion = settings: dual treatment: nitrite plus far-red light
Description: (§1) Also disclosed herein is a mechanism though which […] potentiates the anti-thrombotic effects of far-red light. […] The effects of combining far-red light and nitrite in inhibiting several different measures of clotting using different agonists are disclosed herein.

clotting in blood = settings: TEG, RBCs present
Procedure: (§2) The effects of nitrite and light on reducing clotting in blood were conducted by comparing sham, light alone, nitrite alone and the combination.

clotting = test system: clotting
Procedure: as §1, §2

[1] = test system: device thrombosis in extracorporeal circuit
Description: Two Mito MD LED sources were employed with the tubing sandwiched in between. The power of the LEDs is reported as 100 mW/cm^2 at 6 inches from the device and we measured 35 mW/cm^2 at this distance and 230 mW/cm^2 directly at the surface. […] The system was also maintained at the desired temperature using a circulating water bath attached to the oxygenator representative of use conditions. The blood was deoxygenated by flowing nitrogen through the oxygenator to mimic venous blood from a real patient and hemoglobin saturation was about 70% or so, as tested using absorption spectroscopy and our integrating sphere detector for turbid samples.
Disclosed herein are outcome measures to test the efficacy of the device, including: • (1) Patency of the device. Whether enough clotting will occur to impede flow enough so that the experiment needs to be stopped before six hours of testing. The time to stopping was recorded. • (2) Pressure as a function of time. The pressure in the circuit was recorded every 15 minutes with higher pressures indicating occlusive clotting. • (3) Visual inspection for clotting. Tubing was examined thoroughly every 15 minutes with flashlights and photographs were taken to record the size and number of visual clots. • (4) Blood aliquots were collected every 15 minutes to measure oxygenation state of hemoglobin (so the nitrogen flow can be adjusted). A spectrometer was used with an integrating sphere that collected scattered light to get true absorption of turbid samples. […] RBCS were sedimented and hemoglobin concentration in the supernatant determined by absorption spectroscopy. • (7) Platelet count was assessed as part of a complete blood count. Platelet count goes down as platelets adhere and aggregate in the system.
In addition, nitrite was measured to assess the effective dose that a patient may encounter. […] For all experiments, the same blood was used for control and treatment and the same amount of calcium infused at the same timepoints.
The system was tested by comparing treatment to control in terms of patency, platelet count, and platelet activation.

[2] = molecular target: T1, partially deoxygenated hemoglobin (Homo sapiens, UniProt P68871+P69905); settings: hemoglobin 10 mM (in heme) in blood, pseudo first order
Procedure: In addition, nitrite was measured to assess the effective dose that a patient may encounter. […] For all experiments, the same blood was used for control and treatment and the same amount of calcium infused at the same timepoints. For the example shown in FIG. 11A, no calcium was infused. […] For the example shown in FIG. 11B, calcium additions was added at the 1.5 hour mark and at each of the next two 0.5 hour intervals (1.5 mM; 0.75 mM; and 0.375 mM).

[3] = molecular target: T1, partially deoxygenated hemoglobin; settings: cited from earlier work
deoxygenated RBCs = assay: Heme nitrosyl export from deoxygenated RBCs incubated with nitrite (tri-iodide chemiluminescence assay); format: cell-based; settings: with versus without hemopexin

T1 sequence (P69905 2-142 limits assumed): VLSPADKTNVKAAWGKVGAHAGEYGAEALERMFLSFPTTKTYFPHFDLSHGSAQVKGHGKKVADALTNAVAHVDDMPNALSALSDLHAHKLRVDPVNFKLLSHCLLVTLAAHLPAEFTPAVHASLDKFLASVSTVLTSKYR
T1 sequence (P68871 2-147 limits assumed): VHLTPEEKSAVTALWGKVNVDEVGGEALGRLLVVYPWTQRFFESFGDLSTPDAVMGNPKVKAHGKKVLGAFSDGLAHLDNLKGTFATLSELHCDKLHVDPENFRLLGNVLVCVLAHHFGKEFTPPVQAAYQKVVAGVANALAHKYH
Chain of oxygenated Hb (OxyHb) (P69905 2-142 limits assumed): as the sequence (P69905 2-142 limits assumed) above
Chain of oxygenated Hb (OxyHb) (P68871 2-147 limits assumed): as the sequence (P68871 2-147 limits assumed) above

Molecule: CC(=O)N[C@H](C(=O)O)C(C)(C)SN=O (racemic) [SNAP, S-Nitroso-N-acetylpenicillamine]
- platelet activation with RBCs treated with nitrosating agent, then washed (platelet activation; RBCs treated with SNAP, excess removed): caused the RBCs to inhibit platelet activation
- effect of light illumination on platelet activation with treated RBCs (platelet activation; RBCs treated, washed, then illuminated): Light potentiates effects

Molecule: CC1(C)N([O])C(c2ccc(C(=O)O)cc2)=[N+]([O-])C1(C)C [CPTIO]
- effect on nitrite-mediated inhibition of platelet activation by RBCs (platelet activation): abrogated

Molecule: O=C(O)c1cc(SSc2ccc([N+](=O)[O-])c(C(=O)O)c2)ccc1[N+](=O)[O-] [DTNB]
- effect on nitrite-mediated inhibition of platelet activation by RBCs (platelet activation): abrogates inhibition of platelets

Molecule: CCN1C(=O)C=CC1=O [NEM, N-ethyl maleimide]
- effect on platelet inhibition by SNAP-treated RBCs (platelet activation; pre-treatment with thiol binding agent): abrogated

Molecule: [N]=O [NO, Nitric oxide]
- rate constant (oxygenated Hb (OxyHb)): 6-8×10^7 M^−1s^−1

Molecule: O=NO [nitrite]
- effect on platelet activation (platelet activation; RBCs present, nitrite alone): decreases platelet activation
- inhibition of platelet activation (platelet activation; RBCs present, nitrite plus far-red light 660 nm, ~5 min): dramatically enhances nitrite bioactivation by RBCs
- effect on platelet activation (platelet activation; nitrite added to activated platelets, absence of RBCs): has no effect
- platelet adhesion (platelet adhesion): decreases platelet adhesion
- rate of clot growth (clotting in blood): decreasing the rate of clot growth
- time to initial fibrin formation (R-time) (clotting in blood): increasing the time to initial fibrin formation
- reduction of clotting (clotting; combination of nitrite and light, all assays): universally effective in reducing clotting
- reduction of clotting (clotting; monotherapy): mixed effects
- survival time of treated system longer than control circuit, average ([1]; combined nitrite and red light): 220%
- decrease in the number of platelets, first to last sample ([1]; treated system (nitrite plus light), complete blood count, averaged): 32%
- pressure in the circuit ([1]; whole blood, calcium infused, nitrite plus far-red light from the 1.5 hour mark): decreased to less than that of the control circuit
- lifetime of the nitrite [2]: about 100 seconds
- bimolecular rate constant [3]: 1 M⁻¹ s⁻¹

B1: hemopexin: a plasma protein with extremely high affinity for free heme (protein, UniProt P02790 24-462, looked up)
Hemopexin: TPLPPTSAHGNVAEGETKPDPDVTERCSDGWSFDATTLDDNGTMLFFKGEFVWKSHKWDRELISERWKNFPSPVDAAFRQGHNSVFLIKGDKVWVYPPEKKEKGYPKLLQDEFPGIPSPLDAAVECHRGECQAEGVLFFQGDREWFWDLATGTMKERSWPAVGNCSSALRWLGRYYCFQGNQFLRFDPVRGEVPPRYPRDVRDYFMPCPGRGHGHRNGTGHGNSTHHGPEYMRCSPHLVLSALTSDNHGATYAFSGTHYWRLDTSRDGWHSWPIAHQWPQGPSAVDAAFSWEEKLYLVQGTQVYVFLTKGGYTLVSGYPKRLEKEVGTPHGIILDSVDAAFICPGSSRLHIMAGRRLWWLDLKSGAQATWTELPWPHEKVDGALCMEKSLGPNSCSANGPGLYLIHGPNLYCYSDVEKLNAAKALPQPQNVTSLLGCTH
- NO species in the supernatant (deoxygenated RBCs): significantly greater NO
